This is an account of results in patent US7329650B2, “Peptides and peptide analogues designed from HFE protein and their uses in the treatment of iron overload diseases” (Bio-Rad Laboratories, Inc., priority 1998, dated 2008).

The experiment has as its target T1, transferrin receptor (TfR) (Homo sapiens, UniProt P02786).
T1 construct: HeLa cells were grown to 80-90% confluence at 37° C. at 5% CO2; endogenous in cells; host or cells: HeLa cells
The experiment can be described thus: Measurement of cell-associated transferrin (labeled transferrin binding to HeLa cells, Scatchard analysis). The settings on record: for effect on TfR affinity for transferrin (in words): HeLa cells, peptide 50 μM or soluble HFE/β2m 100 nM alone.

Ends that are not written are not given here.

T1 sequence (P02786 whole entry): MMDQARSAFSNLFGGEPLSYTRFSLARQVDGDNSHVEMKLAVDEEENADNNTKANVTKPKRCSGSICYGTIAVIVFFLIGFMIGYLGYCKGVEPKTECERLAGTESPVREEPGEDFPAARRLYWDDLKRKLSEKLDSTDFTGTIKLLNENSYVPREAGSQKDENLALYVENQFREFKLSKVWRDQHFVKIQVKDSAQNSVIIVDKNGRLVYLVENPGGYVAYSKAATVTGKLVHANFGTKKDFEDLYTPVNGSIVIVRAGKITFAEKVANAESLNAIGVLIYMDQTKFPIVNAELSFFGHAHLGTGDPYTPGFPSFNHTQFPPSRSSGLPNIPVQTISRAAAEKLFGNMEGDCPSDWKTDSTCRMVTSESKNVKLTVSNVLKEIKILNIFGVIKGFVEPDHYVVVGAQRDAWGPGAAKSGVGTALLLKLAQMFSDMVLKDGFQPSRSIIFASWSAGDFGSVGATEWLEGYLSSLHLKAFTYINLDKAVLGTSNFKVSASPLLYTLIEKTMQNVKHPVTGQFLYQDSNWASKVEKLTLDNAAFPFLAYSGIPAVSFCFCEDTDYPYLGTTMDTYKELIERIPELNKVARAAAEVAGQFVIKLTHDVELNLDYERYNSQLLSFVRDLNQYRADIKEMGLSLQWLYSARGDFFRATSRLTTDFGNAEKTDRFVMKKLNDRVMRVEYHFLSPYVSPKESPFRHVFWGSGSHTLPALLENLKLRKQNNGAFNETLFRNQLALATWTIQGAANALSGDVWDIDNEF

On to GWDHMFTVDFATIMENH [G-(17)-H (Ala)], for which the “effect on TfR affinity for transferrin (in words)” value is “little effect” (FIG. 2 experiment) and “little effect” (FIG. 3 experiment).

For the sequence GWDHMFTVDFWTIMENH [G-(17)-H (Trp)], the “increase of KD of TfR for transferrin versus HeLa cells alone” value (FIG. 1 experiment, peptide 50 μM or soluble HFE/β2m 100 nM) is “approximately 2 fold”. Further, for the setting “FIG. 3 experiment”, the “effect on TfR affinity for transferrin (in words)” value is “significant increase in KD”.
